Laboratory results published in patent US9181186B2, “Aromatic ring compound” (TAKEDA PHARMACEUTICAL COMPANY LIMITED, priority 2012, dated 2015).

These compounds were tested against T1, human GPR40 (Homo sapiens, UniProt O14842) (assay: Evaluation of human GPR40 agonist activity with increase in intracellular Ca2+ concentration as an index (FLIPR Tetra)). Details: test compound 1 μM; CHO(dhfr−) cells stably expressing human GPR40; 100% = 1 μM WO2009/048527 Example 99.2, 0% = DMSO.
T1 construct: expressed in transfected cells
T1 sequence (O14842 whole entry): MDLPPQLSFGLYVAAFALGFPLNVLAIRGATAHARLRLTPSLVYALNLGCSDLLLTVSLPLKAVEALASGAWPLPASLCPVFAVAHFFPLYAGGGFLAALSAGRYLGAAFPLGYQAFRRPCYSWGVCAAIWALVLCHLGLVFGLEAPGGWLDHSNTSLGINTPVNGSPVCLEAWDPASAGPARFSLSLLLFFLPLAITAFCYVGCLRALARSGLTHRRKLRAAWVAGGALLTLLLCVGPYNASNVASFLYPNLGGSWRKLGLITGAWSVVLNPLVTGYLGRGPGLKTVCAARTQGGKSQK
Assay type: cell-based
Procedure: Evaluation of Human GPR40 Agonist Activity with Increase in Intracellular Ca^2+ Concentration as an Index
CHO(dhfr−) cells that stably expressed human GPR40 were suspended in MEMα (Nikken Bio Medical Laboratory) containing 10% dialysis serum (GEMINI BIO-PRODUCTS), 10 mM HEPES (Invitrogen), 100 U/mL penicillin, 100 μg/mL streptomycin (Invitrogen), and plated on a 384 well black/clear cell culture plate at 10,000 cells/well. After culture overnight in a CO2 incubator at 37° C., the culture supernatant was removed, and a loading buffer [dye attached to Calcium 5 Assay Kit (Molecular Devices) was dissolved in an assay buffer (20 mM HEPES, 0.2% fatty acid-free BSA (Sigma-Aldrich), 2.5 mM probenecid (DOJINDO)-containing HBSS (Invitrogen)) added with 0.025% Cremophor EL (DOJINDO)] was added at 37.5 μL/well. After incubation in a CO2 incubator at 37° C. for 1 hr, the cells were stood at room temperature for 15 min, an assay buffer containing the test compound at a final concentration of 1 μM was added at 12.5 μL/well in FLIPR Tetra (Molecular Devices), and the fluorescence amount was successively measured. Human GPR40 agonist activity calculated using an increase in the intracellular Ca^2+ concentration as an index, wherein the activity of 1 μM of the compound described in WO 2009/048527 (WO2009/048527 Example 99.2) was 100%, and the activity when DMSO was added instead of the test compound was 0%.

SMILES | Human GPR40 agonist activity (increase in intracellular Ca2+ concentration) | activation at 1 µM
COc1ccc(F)c(-c2ccc(COc3cccc(C(CC(=O)O)C4CC4)c3)nc2OCC(C)C)c1 (stereo not shown) [Example 1, 3-cyclopropyl-3-(3-((5-(2-fluoro-5-methoxyphenyl)-6-isobutoxypyridin-2-yl)methoxy)phenyl)propanoic acid] | – | 100%
COc1ccc(F)c(-c2ccc(COc3cc(C(CC(=O)O)C4CC4)ncn3)nc2OCC(C)C)c1 (stereo not shown) [Example 2, 3-cyclopropyl-3-(6-((5-(2-fluoro-5-methoxyphenyl)-6-isobutoxypyridin-2-yl)methoxy)pyrimidin-4-yl)propanoic acid] | – | 107%
COc1ccc(F)c(-c2cnc(COc3cc(C(CC(=O)O)C4CC4)ncn3)cc2OCC(C)C)c1 (stereo not shown) [Example 6, 3-cyclopropyl-3-(6-((5-(2-fluoro-5-methoxyphenyl)-4-isobutoxypyridin-2-yl)methoxy)pyrimidin-4-yl)propanoic acid] | – | 98%
COc1ccc(F)c(-c2ccc(COc3cc(CCC(=O)O)ccc3C)nc2CC(C)(C)C)c1 [Example 13, 3-(3-((6-(2,2-dimethylpropyl)-5-(2-fluoro-5-methoxyphenyl)pyridin-2-yl)methoxy)-4-methylphenyl)propanoic acid] | – | 110%
COc1cc(CCC(=O)O)cc(OCc2ccc(-c3cc(OC)ccc3F)c(CC(C)(C)C)n2)c1 [Example 15, 3-(3-((6-(2,2-dimethylpropyl)-5-(2-fluoro-5-methoxyphenyl)pyridin-2-yl)methoxy)-5-methoxyphenyl)propanoic acid] | – | 103%
COc1ccc(F)c(-c2ccc(COc3ccc(OC)c(CCC(=O)O)c3)nc2CC(C)(C)C)c1 [Example 18, 3-(5-((6-(2,2-dimethylpropyl)-5-(2-fluoro-5-methoxyphenyl)pyridin-2-yl)methoxy)-2-methoxyphenyl)propanoic acid] | – | 109%
COc1ccc(F)c(-c2ccc(COc3cccc(CCC(=O)O)c3)nc2CC(C)(C)C)c1 [Example 29, 3-(3-((6-(2,2-dimethylpropyl)-5-(2-fluoro-5-methoxyphenyl)pyridin-2-yl)methoxy)phenyl)propanoic acid] | – | 103%
COc1ccc(F)c(-c2ncc(COc3cccc(C(CC(=O)O)C4CC4)c3)cc2OCC(C)C)c1 (stereo not shown) [Example 31, 3-cyclopropyl-3-(3-((6-(2-fluoro-5-methoxyphenyl)-5-isobutoxypyridin-3-yl)methoxy)phenyl)propanoic acid] | – | 104%
COc1ccc(F)c(-c2ncc(COc3cc(C(CC(=O)O)C4CC4)ncn3)cc2OCC(C)C)c1 (stereo not shown) [Example 32, 3-cyclopropyl-3-(6-((6-(2-fluoro-5-methoxyphenyl)-5-isobutoxypyridin-3-yl)methoxy)pyrimidin-4-yl)propanoic acid] | – | 104%
COc1ccc(F)c(-c2ncc(COc3cccc(C(CC(=O)O)C4CC4)c3)cc2CC(C)(C)C)c1 (stereo not shown) [Example 34, 3-cyclopropyl-3-(3-((5-(2,2-dimethylpropyl)-6-(2-fluoro-5-methoxyphenyl)pyridin-3-yl)methoxy)phenyl)propanoic acid] | – | 118%
COc1ccc(F)c(-c2ncc(COc3cc(C(CC(=O)O)C4CC4)ncn3)cc2OCC(C)(C)C)c1 (stereo not shown) [Example 36, 3-cyclopropyl-3-(6-((5-(2,2-dimethylpropoxy)-6-(2-fluoro-5-methoxyphenyl)pyridin-3-yl)methoxy)pyrimidin-4-yl)propanoic acid] | – | 106%
COc1ccc(F)c(-c2ncc(COc3cc(C(CC(=O)O)C4CC4)ncn3)cc2OCCC(F)(F)F)c1 (stereo not shown) [Example 37, 3-cyclopropyl-3-(6-((6-(2-fluoro-5-methoxyphenyl)-5-(3,3,3-trifluoropropoxy)pyridin-3-yl)methoxy)pyrimidin-4-yl)propanoic acid] | – | 101%
COc1ccc(F)c(-c2cnc(COc3cc(C(CC(=O)O)C4CC4)ncn3)nc2OCC(C)C)c1 (stereo not shown) [Example 41, 3-cyclopropyl-3-(6-((5-(2-fluoro-5-methoxyphenyl)-4-isobutoxypyrimidin-2-yl)methoxy)pyrimidin-4-yl)propanoic acid] | – | 110%
COc1ccc(F)c(-c2ncc(COc3cc(C(CC(=O)O)C4CC4)c(F)cn3)cc2CC2(C#N)CCCC2)c1 (stereo not shown) [Example 43, 3-(2-((5-((1-cyanocyclopentyl)methyl)-6-(2-fluoro-5-methoxyphenyl)pyridin-3-yl)methoxy)-5-fluoropyridin-4-yl)-3-cyclopropylpropanoic acid] | – | 115%
COc1ccc(F)c(-c2ncc(COc3cc(C(CC(=O)O)C4CC4)c(F)cn3)cc2CC2(C#N)CCCC2)c1 (stereo not shown) [Example 44, 3-(2-((5-((1-cyanocyclopentyl)methyl)-6-(2-fluoro-5-methoxyphenyl)pyridin-3-yl)methoxy)-5-fluoropyridin-4-yl)-3-cyclopropylpropanoic acid] | 107% | –

Continued, values first:

Human GPR40 agonist activity (increase in intracellular Ca2+ concentration) | activation at 1 µM | SMILES
106% | – | COc1ccc(F)c(-c2ccc(COc3cccc(C(CC(=O)O)C4CC4)c3)nc2CC(C)(C)C)c1 (single isomer, unassigned) [Example 7, 3-cyclopropyl-3-(3-((6-(2,2-dimethylpropyl)-5-(2-fluoro-5-methoxyphenyl)pyridin-2-yl)methoxy)phenyl)propanoic acid]
– | 106% | COc1ccc(F)c(-c2ccc(COc3cc(C(CC(=O)O)C4CC4)ncn3)nc2CC(C)(C)C)c1 (stereo not shown) [Example 8, 3-cyclopropyl-3-(6-((6-(2,2-dimethylpropyl)-5-(2-fluoro-5-methoxyphenyl)pyridin-2-yl)methoxy)pyrimidin-4-yl)propanoic acid]
– | 100% | COc1ccc(F)c(-c2ccc(COc3cccc(C(CC(=O)O)C4CC4)c3)nc2CC(C)(C)C)c1 (stereo not shown) [Example 11, 3-cyclopropyl-3-(3-((6-(2,2-dimethylpropyl)-5-(2-fluoro-5-methoxyphenyl)pyridin-2-yl)methoxy)phenyl)propanoic acid]
– | 112% | COc1ccc(F)c(-c2ccc(COc3cc(C(CC(=O)O)C4CC4)ccc3OC)nc2CC(C)(C)C)c1 (stereo not shown) [Example 12, 3-cyclopropyl-3-(3-((6-(2,2-dimethylpropyl)-5-(2-fluoro-5-methoxyphenyl)pyridin-2-yl)methoxy)-4-methoxyphenyl)propanoic acid]
– | 109% | COc1ccc(F)c(-c2ccc(COc3cc(F)cc(CCC(=O)O)c3)nc2CC(C)(C)C)c1 [Example 16, 3-(3-((6-(2,2-dimethylpropyl)-5-(2-fluoro-5-methoxyphenyl)pyridin-2-yl)methoxy)-5-fluorophenyl)propanoic acid]
– | 109% | COc1ccc(F)c(-c2ccc(COc3ccc(C)c(CCC(=O)O)c3)nc2CC(C)(C)C)c1 [Example 17, 3-(5-((6-(2,2-dimethylpropyl)-5-(2-fluoro-5-methoxyphenyl)pyridin-2-yl)methoxy)-2-methylphenyl)propanoic acid]
– | 109% | COc1ccc(F)c(-c2ccc(COc3ccc(F)c(CCC(=O)O)c3)nc2CC(C)(C)C)c1 [Example 19, 3-(5-((6-(2,2-dimethylpropyl)-5-(2-fluoro-5-methoxyphenyl)pyridin-2-yl)methoxy)-2-fluorophenyl)propanoic acid]
– | 103% | COc1ccc(F)c(-c2ccc(COc3cccc(CCC(=O)O)c3F)nc2CC(C)(C)C)c1 [Example 22, 3-(3-((6-(2,2-dimethylpropyl)-5-(2-fluoro-5-methoxyphenyl)pyridin-2-yl)methoxy)-2-fluorophenyl)propanoic acid]
– | 99% | COc1ccc(F)c(-c2ccc(COc3cc(C)cc(CCC(=O)O)c3)nc2CC(C)(C)C)c1 [Example 23, Sodium 3-(3-((6-(2,2-dimethylpropyl)-5-(2-fluoro-5-methoxyphenyl)pyridin-2-yl)methoxy)-5-methylphenyl)propanoate]
– | 112% | COc1ccc(F)c(-c2ccc(COc3cc(C(CC(=O)O)C4CC4)ccn3)nc2CC(C)(C)C)c1 (stereo not shown) [Example 30, 3-cyclopropyl-3-(2-((6-(2,2-dimethylpropyl)-5-(2-fluoro-5-methoxyphenyl)pyridin-2-yl)methoxy)pyridin-4-yl)propanoic acid]
– | 101% | COc1ccc(F)c(-c2ncc(COc3cc(C(CC(=O)O)C4CC4)ncn3)cc2CC(C)(C)C)c1 (stereo not shown) [Example 35, 3-cyclopropyl-3-(6-((5-(2,2-dimethylpropyl)-6-(2-fluoro-5-methoxyphenyl)pyridin-3-yl)methoxy)pyrimidin-4-yl)propanoic acid]
– | 113% | COc1ccc(F)c(-c2ncc(COc3cc(C(CC(=O)O)C4CC4)ccn3)cc2CC(C)(C)C)c1 (stereo not shown) [Example 40, 3-cyclopropyl-3-(2-((5-(2,2-dimethylpropyl)-6-(2-fluoro-5-methoxyphenyl)pyridin-3-yl)methoxy)pyridin-4-yl)propanoic acid]
– | 115% | COc1ccc(F)c(-c2ccc(COc3cc(C(CC(=O)O)C4CC4)c(F)cn3)nc2CC(C)(C)C)c1 (stereo not shown) [Example 42, 3-cyclopropyl-3-(5-fluoro-2-((5-(2-fluoro-5-methoxyphenyl)-6-neopentylpyridin-2-yl)methoxy)pyridin-4-yl)propanoic acid]
